Data from US9630991B2, “βsheet tapes ribbons in tissue engineering” (University of Leeds, priority 2002, dated 2017).
Where a SMILES comes first, the peptide text is derived from it. [ ]: non-standard residue; d: D form. Orn = NCCC[C@H](N)C(=O)O

Tests used:
[1] = Net charge of peptide at pH 7.5 in physiological solution; type: physicochemical; details: per peptide, pH 7.5, physiological solution
[2] = Fibril dimensions measured from TEM images; type: physicochemical; details: for L, fibril contour length / h, twist pitch / l, fibril persistence length / wn, width of the fibril at its narrowest point / ww, width of the fibril at its widest point: physiological conditions, TEM
Method: For, electron microscopy, samples were examined using a Phillips CM10 TEM at 80-100 kV accelerating voltage. Gels were diluted to a peptide concentration of 20 μM seconds before application to a glow-discharged, carbon-coated, copper grid followed by coating with uranyl acetate solution (4% w/v in water).
The dimensions of the fibrils formed by these peptides are given in Table 2, and TEM images from which these measurements were obtained are shown in FIGS. 6A-6D. These dimensions are—the length of a peptide fibril (contour length, L), the length of a peptide fibril before it curves (persistence length, l), the length of a full twist of a peptide fibril (twist pitch, h) the width of a fibril at its widest point (ww) and the width of the fibril at its narrowest point as it twists (wn).

[3] = Self-assembly and gel formation in physiological solution / cell media; type: physicochemical
Excerpt: A large number (dozens) of systematically varied peptides (typically 7-30 residues long) have been studied for soluble polymer and gel formation in cell media. […] Only peptides with a approximate net +2 or −2 charge per peptide at physiological pH=7.5, were able to form soluble polymers and gel cell media (The amount of net charge necessary per peptide to keep its polymers soluble in cell media will vary depending on the overall surface properties and solubility of the peptide tapes it forms). […] These peptides retained a predominantly monomeric state and their solutions in cell media were fluids up to around 40 mg/ml peptide concentration.
The rationally designed peptide P11-8 (Tables 1A and 1C) was dissolved in 145 mM NaCl, pH˜7.5 aqueous solution (the ionic strength and pH values of the solution were similar to those present in cell culture medium) or it was added directly in cell culture medium.
The fibrils of P11-8 entwined partly with each other forming a three dimensional network and turned the peptide solution in cell media into a homogeneous self-supporting gel at peptide concentration higher than 15 mg/ml.
The gel could be temporarily broken by mechanical agitation. The time it took the gel to reform depended on the peptide concentration, ranging from seconds for a 35 mg/ml peptide gel, to hours for a 15 mg/ml peptide gel.

[4] = system: tissue surrounding the injection site; parameters: species or system mice; details: mouse, in vivo
Excerpt: Injection of P11-3 and P11-8 peptide solutions in cell media in mice has shown no effect of the presence of the peptide in the tissue surrounding the injection site as judged by histology after two and eight weeks following the peptide injection.

[5] = Self-assembly and gel formation in physiological solution / cell media; type: physicochemical; remark: listed apart in the source
L929 murine fibroblasts = assay: Contact cytotoxicity testing; type: cell-based; details: peptide gels in culture with L929 fibroblasts
Excerpt: L929 murine fibroblasts growing in contact with the negative collagen control are shown in FIG. 5B and the positive control of cyanoacrylate adhesive is shown in FIG. 5A.

L929 fibroblast cells = assay: Cell density in peptide gels by ATPLite assay; type: cell-based, murine
Excerpt: After establishing that the peptides tested were not cytotoxic when placed in culture with L929 fibroblast cells, the next stage was assessing the suitability of the collagen peptide gels for use in supporting cell proliferation.

[6] = Persistence length of tapes, ribbons and fibrils in water; type: physicochemical
Excerpt: The tapes, ribbons, fibrils and fibres are increasingly more rigid structures.

[7] = Isotropic to nematic transition concentration; type: physicochemical; details: ribbons of P11-1, fibrils of P11-2
Method: We have also shown that above a certain peptide concentration cI/N (isotropic to nematic transition concentration) the semi-rigid ribbons, fibrils and fibres can align and thus transform their initially isotropic solution into a nematic liquid crystalline solution. The transition of the solution to the nematic liquid crystalline state happens at lower concentrations for more rigid polymers. For example, the nematic transition for solutions of ribbons of P11-1 peptide occurs at cI/N≈13 mM, whilst the nematic transition for solutions of the much more rigid fibrils of P11-2 peptide occurs at cI/N≈0.9 mM.

[8] = Geometrical sizes from X-ray diffraction data and molecular modelling; type: physicochemical
Excerpt: FIG. 2. Model of hierarchical self-assembly of beta-sheet forming peptides. Each peptide in beta-strand conformation, is depicted as a chiral rod-like unit (a). Local arrangements (c-f) and the corresponding global equilibrium conformations (c′-f′) for the hierarchical self-assembling structures formed in solutions of chiral molecules (a), which have complementary donor and acceptor groups, shown by arrows, via which they interact and align to form tapes (c). The black and the white surfaces of the rod (a) are reflected in the sides of the helical tape (c) which is chosen to curl towards the black side (c′). The outer sides of the twisted ribbon (d), of the fibril (e) and of the fibre (f) are all white. One of the fibrils in the fibre (f′) is drawn with darker shade for clarity. (e) & (f) show the front views of the edges of fibrils and fibres, respectively. Geometrical sizes (the numbers in parentheses show the values of the corresponding geometric sizes for P11-I and P11-II peptides, based on X-ray diffraction data and molecular modelling): inter-rod separation in a beta-sheet tape b2 (b2=0.47 nm); tape width, equal to the length of a rod, b1 (b1=4 nm); inter-ribbon distance in the fibril, α (α=1.6-2 nm for P11-I, and α=2-2.4 nm for P11-II).

[9] = 145 mM NaCl, pH~7.5 or cell culture medium

Compound	Net charge at pH 7.5 [1]	L, fibril contour length [2]	h, twist pitch [2]	l, fibril persistence length [2]	wn, width of the fibril at its narrowest point [2]	ww, width of the fibril at its widest point [2]	contact cytotoxicity (L929 murine fibroblasts)	further results
CC(=O)N[C@@H](CCC(N)=O)C(=O)N[C@@H](CCC(N)=O)C(=O)N[C@@H](CCCNC(=N)N)C(=O)N[C@@H](Cc1ccccc1)C(=O)N[C@@H](CCCN)C(=O)N[C@@H](Cc1c[nH]c2ccccc12)C(=O)N[C@@H](CCCN)C(=O)N[C@@H](Cc1ccccc1)C(=O)N[C@@H](CCC(=O)O)C(=O)N[C@@H](CCC(N)=O)C(=O)N[C@@H](CCC(N)=O)C(N)=O [Peptide P11-8, CH3CO-Q-Q-R-F-O-W-O-F-E-Q-Q-NH2] (Ac-QQRF[Orn]W[Orn]FEQQ-NH2)	+2	1.2-6.3 μm	140-320 nm	0.8-2.5 μm	4-11 nm	13-19 nm	–	fibril full pitch [2, 9]: 200-300 nm; fibril length [2, 9]: several micrometers; fibril narrow width [2, 9]: 4-5 nm; fibril wide width [2, 9]: 12-15 nm; time for gel to reform after mechanical agitation ([3]; 15 mg/ml peptide gel): hours; time for gel to reform after mechanical agitation ([3]; 35 mg/ml peptide gel): seconds; fibrils and gels after sterilisation using an autoclave ([3]; cell media): reform after sterilisation using an autoclave; peptide concentration for homogeneous self-supporting gel ([3]; cell media): higher than 15 mg/ml; gel stability ([3]; room temperature, cell media): stable for at least several weeks; effect on tissue surrounding the injection site by histology [4]: no effect; conformation / solution state in water ([5]; pH<7 in water): monomeric random coil conformation; self-assembly in low ionic strength media ([5]; pH=7.5, peptide concentrations up to 10 mg/ml): does not self-assemble
CC(=O)N[C@@H](CC(N)=O)C(=O)N[C@@H](CC(N)=O)C(=O)N[C@@H](CCCNC(=N)N)C(=O)N[C@@H](Cc1ccccc1)C(=O)N[C@@H](CCCN)C(=O)N[C@@H](Cc1c[nH]c2ccccc12)C(=O)N[C@@H](CCCN)C(=O)N[C@@H](Cc1ccccc1)C(=O)N[C@@H](CCC(=O)O)C(=O)N[C@@H](CC(N)=O)C(=O)N[C@@H](CC(N)=O)C(N)=O [Peptide P11-16, CH3CO-N-N-R-F-O-W-O-F-E-N-N-NH2] (Ac-NNRF[Orn]W[Orn]FENN-NH2)	+2	1.2-3.9 μm	109-220 nm	0.5-1.6 μm	5-10 nm	11-20 nm	growing in contact with and onto the peptide gel matrix	–
CC(=O)N[C@@H](CC(N)=O)C(=O)N[C@@H](CC(N)=O)C(=O)N[C@@H](CCCNC(=N)N)C(=O)N[C@@H](Cc1ccccc1)C(=O)N[C@@H](CCC(=O)O)C(=O)N[C@@H](Cc1c[nH]c2ccccc12)C(=O)N[C@@H](CCC(=O)O)C(=O)N[C@@H](Cc1ccccc1)C(=O)N[C@@H](CCC(=O)O)C(=O)N[C@@H](CC(N)=O)C(=O)N[C@@H](CC(N)=O)C(N)=O [Peptide P11-15, CH3CO-N-N-R-F-E-W-E-F-E-N-N-NH2] (Ac-NNRFEWEFENN-NH2)	−2	1.3-4 μm	118-220 nm	0.3-1.2 μm	5-7 nm	7-10 nm	growing in contact with and onto the peptide gel matrix	support of cell growth (L929 fibroblast cells; L929 cells in peptide gels): moderately successful in supporting cell growth; macroscopic appearance of gel (L929 fibroblast cells; at end of cell culture experiment): little sign of macroscopic degradation
QQR^+FQWQFE^-QQ (QQRFQWQFEQQ; self assembling peptide P11-2)	0	–	–	–	–	–	–	persistence length of fibrils [6]: 20-70 μm; persistence length of ribbons [6]: 1 μm; cI/N, isotropic to nematic transition concentration [7]: ≈ 0.9 mM; inter-ribbon distance in the fibril, α [8]: 2-2.4 nm; inter-rod separation in a beta-sheet tape b2 [8]: 0.47 nm; tape width b1 [8]: 4 nm
